Source: ChEMBL document CHEMBL1158706, “Hemiterpene glucosides with anti-platelet aggregation activities from Ilex pubescens” (2005)

Organism: Rattus norvegicus
Assay: Antiplatelet activity in Sprague-Dawley rat plasma assessed as shear induced platelet aggregation at 10 uM
Type: functional

SMILES	Activity
C=C(COC(=O)/C=C/c1ccc(O)c(O)c1)C(O)CO[C@@H]1O[C@H](CO)[C@@H](O)[C@H](O)[C@H]1O (stereo partly drawn) [PUBESCENOSIDE A]	36.55%
C=C(CO)C(CO[C@@H]1O[C@H](CO)[C@@H](O)[C@H](O)[C@H]1O)OC(=O)/C=C/c1ccc(O)c(O)c1 (stereo partly drawn) [PUBESCENOSIDE B]	27.3%
CC(=O)Oc1ccccc1C(=O)O [ASPIRIN]	44.7%
